The METLIN SMRT retention time set (Domingo-Almenara et al. 2019)

Assay: gradient 5% acetonitrile 3 min, to 50% in 2 min, to 85% in 15 min, held 3 min, 100 µL/min
Settings: column: Zorbax Extend-C18 2.1 x 50 mm; eluents: water / acetonitrile, 0.1% formic acid
Summary of the method: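 Values are retention times taken from adduct peaks that software picked and an analyst inspected. The pure standards were run as mixtures of ~100 molecules on HPLC linked to a quadrupole time-of-flight mass spectrometer, in positive and negative ionization mode. A Zorbax Extend-C18 column (2.1 × 50 mm, 1.8 μm) was used at 100 μL/min with water and acetonitrile, each including 0.1% formic acid.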

CC(=O)N1CCc2cc(N3CC(C(=O)Nc4ccc(F)c(F)c4)CC3=O)ccc21 (stereo unspecified)
RP-LC retention time: 726 s

O=C(NCc1ccc(N2CCOCC2)nc1)c1cccc(Br)c1
RP-LC retention time: 626 s

CCOc1ccccc1-c1noc(Cn2c(=O)n(Cc3ccccc3)c(=O)c3sccc32)n1
RP-LC retention time: 1090 s

CCN1C(=O)NC(c2ccc(Cl)cc2)C2=C1CN(CCC(=O)NCCOC)C2=O (stereo unspecified)
RP-LC retention time: 599 s

CCc1nnc(NC(=O)C2CC(=O)N(CCc3c[nH]c4ccc(Cl)cc34)C2)s1 (stereo unspecified)
RP-LC retention time: 715 s

Cc1ccc(-c2cc(C(=O)O)c3ccc(Br)cc3n2)cc1C
RP-LC retention time: 1240 s

CCn1c(=O)c(N2CCN(C(=O)NCCc3ccccc3)CC2)nc2ccccc21
RP-LC retention time: 902 s

Cc1nn(C(C)C(=O)NC2CCC(C)CC2)c(=O)c2nn(-c3ccccc3)c(C)c12 (stereo unspecified)
RP-LC retention time: 962 s

COCCn1cc2c3c(cccc31)CN(C(=O)NCCC(C)C)CC2
RP-LC retention time: 912 s

CC(C)n1cnnc1-c1nn(C)c2c1CN(C(=O)CC1CCCC1)CC2
RP-LC retention time: 732 s

Cc1c2cnn(-c3ccccc3)c(=O)c2c(C)n1C(C)C(=O)NCCN1CCOCC1 (stereo unspecified)
RP-LC retention time: 607 s

COc1ccc(-c2nnc(-c3cccc(S(=O)(=O)N4CCCCCC4)c3)o2)cc1OC
RP-LC retention time: 1020 s

Cc1c(C2CCN(C(=O)c3n[nH]c4ccccc34)CC2)noc1N
RP-LC retention time: 643 s

Nc1ccc(OC(=O)Nc2ccc(O)cc2)cc1
RP-LC retention time: 608 s

CCc1nc2cc(-c3noc(-c4cccc(OC)c4OC)n3)ccc2o1
RP-LC retention time: 1130 s

COc1ccc(C2(C(=O)N3CCC4(CC3)C(OC)C(=O)N4c3cccc(F)c3)CC2)cc1 (stereo unspecified)
RP-LC retention time: 901 s

O=C(NCCNC(=O)c1cccc(Cl)c1)c1ccc(NC(=O)C2CC2)cc1
RP-LC retention time: 667 s

O=C(NCc1ccc(C(F)(F)F)cc1)c1cnc(-c2ccccc2)nc1-c1ccncc1
RP-LC retention time: 935 s

Nc1nc(OCc2ccccc2)c2[nH]cnc2n1
RP-LC retention time: 654 s

COc1ccccc1NC(=O)Cn1cnc2onc(C)c2c1=O
RP-LC retention time: 748 s

O=C(Cn1c2c(c3ccccc31)CCC2)NCCn1ncccc1=O
RP-LC retention time: 710 s

CC(C)CNC(=O)N1CCCN(S(C)(=O)=O)CC1
RP-LC retention time: 615 s

O=C(CC1=NS(=O)(=O)c2ccccc2N1)Nc1ccc(F)cc1F
RP-LC retention time: 679 s

O=C(CN1CCC2(CC1)N=C(c1ccc(Cl)cc1)C(=O)N2)NCc1ccc2c(c1)OCO2
RP-LC retention time: 680 s

Cc1ccc2nc(-c3ccccc3F)c(Nc3c(C)cccc3C)n2c1
RP-LC retention time: 793 s

CN(CCc1noc(-c2ccc(C(=O)N3CCCC3)cc2)n1)C(=O)COc1ccc(Cl)cc1
RP-LC retention time: 808 s

CCN(CC)Cc1ccc2c(c1)CN(C(=O)NC1CCCC1)CCO2
RP-LC retention time: 558 s

CNC(=O)c1ccsc1NC(=O)CN1C(=O)c2ccccc2C1=O
RP-LC retention time: 701 s

Cc1cc(C)cc(NC(=O)N2CCC(CN3CCCC(C)C3)CC2)c1 (stereo unspecified)
RP-LC retention time: 648 s

Cc1cc(Cl)ccc1NC(=O)C1CCCN1S(=O)(=O)c1cc2c(cc1C)NC(=O)C(C)O2 (stereo unspecified)
RP-LC retention time: 914 s

COC(=O)c1cn(Cc2cc(C)ccc2C)nc1S(=O)(=O)N(C)c1ccc(C)cc1
RP-LC retention time: 1060 s

Cc1ccccc1OCC(=O)Nc1nnc(C2CC(=O)N(c3ccc(F)cc3)C2)o1 (stereo unspecified)
RP-LC retention time: 738 s

Cc1nc(-c2ccncc2)nc2c1CC(=O)N2C1CCCC1
RP-LC retention time: 703 s

CCNc1cc(N2CCC(CCC(=O)NC3CCN(C(=O)OCC)CC3)CC2)ncn1
RP-LC retention time: 620 s

COc1ccc(C)cc1NC(=O)N1CC(c2nc(C)no2)C2(CCOCC2)C1 (stereo unspecified)
RP-LC retention time: 753 s

OC[C@@H]1CN(C2CCSCC2)C[C@H]1c1nc(-c2cccnc2)no1
RP-LC retention time: 555 s

CCCn1c(CCc2ccccc2NS(=O)(=O)c2ccc3c(c2)OCCO3)nc2ccccc21
RP-LC retention time: 763 s

O=c1n(Cc2ccc(F)cc2)nc2c(S(=O)(=O)N3CCc4ccccc4C3)cccn12
RP-LC retention time: 938 s

O=C(Nc1cnc(N2CCOCC2)c(C(=O)O)c1)c1ccc(Br)cc1
RP-LC retention time: 715 s

Cc1ccc(-n2ncc3c(NCCCN(C)C)ncnc32)cc1C
RP-LC retention time: 625 s

CCOC(=O)c1c(C)[nH]c(CCC(=O)Nc2ccc(C(C)=O)cc2)c1C
RP-LC retention time: 800 s

CCOc1ccccc1NC(=O)Cn1c(-c2ccccc2)nc(CC)cc1=O
RP-LC retention time: 1320 s

Cn1c(C2CCN(C(=O)c3ccc(Br)cc3)CC2)cc(=O)n2nccc12
RP-LC retention time: 679 s

CCCCC(CC)C(=O)Nc1nc(-c2ccc(F)cc2)cs1 (stereo unspecified)
RP-LC retention time: 1190 s

Cc1ccc(-c2nnc(C)c(NC3CC3)n2)cc1
RP-LC retention time: 644 s

O=C(CC1CCN(C(=O)Nc2ccc3c(c2)OCO3)CC1)N1CCCCC1
RP-LC retention time: 712 s

C=CCN1C(=O)COc2ccc(-c3nc(NC(=O)c4ccncc4)sc3C)cc21
RP-LC retention time: 810 s

O=C(CCn1cnc2c(cnn2-c2ccccc2)c1=O)N1CCN(C(=O)c2ccco2)CC1
RP-LC retention time: 653 s

COC(=O)c1cc2c(=O)n(-c3cc(Cl)ccc3Cl)ccc2nc1C
RP-LC retention time: 944 s

CC1CN(C2CCCCC2)c2nc3c(c(=O)n(CCN4CCOCC4)c(=O)n3C)n2C1 (stereo unspecified)
RP-LC retention time: 662 s

O=C(c1cc(-c2cccnc2)n[nH]1)N1CCN(C(=O)c2cccc3[nH]ccc23)CC1
RP-LC retention time: 598 s

CSc1nc2ccc(NC(=O)c3cccs3)cc2s1
RP-LC retention time: 837 s

Cc1cc(=O)n(CC(=O)Nc2cc(C)on2)c(N2CCOCC2)n1
RP-LC retention time: 592 s

Cc1ccc(-n2cc3c(N4CCCC(C(=O)NCc5ccccc5C(F)(F)F)C4)ncnc3n2)cc1 (stereo unspecified)
RP-LC retention time: 775 s

CCCNC(=O)C1CCCN(c2nc3ncn(CC(=O)NC4CCCC4)c(=O)c3s2)C1 (stereo unspecified)
RP-LC retention time: 641 s

O=C(NCCn1c(CCc2ccccc2)nc2ccccc21)NCc1ccco1
RP-LC retention time: 656 s

CCOC(=O)CSc1nnc2n1CCN2c1ccc(OC)cc1
RP-LC retention time: 707 s

Cc1[nH]c(C)c(S(=O)(=O)N2CCC(C(=O)NC3CCCCCCC3)CC2)c1C(=O)N1CCCC1
RP-LC retention time: 745 s

CCCn1c(=O)c2cc(C(=O)N3CCN(c4ccc(OC)cc4)CC3)nn2c2ccccc21
RP-LC retention time: 862 s

Cc1ccc(Nc2c(-c3ccc(C)cc3)nc3cnccn23)cc1
RP-LC retention time: 969 s

Cc1ccc(-c2ccc(-n3nc(C)c(S(=O)(=O)NCCC(C)C)c3C)nn2)cc1
RP-LC retention time: 1210 s

Cc1noc(C)c1CN1CCN(C(=O)Cc2ccccc2Cl)CC1
RP-LC retention time: 563 s

Clc1ccccc1N1CCN(Cc2nnc(-c3ccccc3)o2)CC1
RP-LC retention time: 768 s

COC1CN(c2cccc(F)c2)C12CCN(Cc1ccc(F)c(F)c1)CC2 (stereo unspecified)
RP-LC retention time: 785 s

Cc1c(Cl)cccc1NC(=O)Cn1nc2c3cc(F)ccc3ncn2c1=O
RP-LC retention time: 677 s

C=Cc1ccc(CN2CCCN(c3ncccc3-c3nc(CC)no3)CC2)cc1
RP-LC retention time: 722 s

Cc1sc(NC(=O)C(C)(C)C)nc1-c1ccc2c(c1)NC(=O)CO2
RP-LC retention time: 830 s

Cc1cc(NC(=O)C(C)C2CCN(C(=O)Nc3ccc(Cl)cc3)CC2)ccc1F (stereo unspecified)
RP-LC retention time: 952 s

Cc1cc(C)cc(NC(=O)C2CCN(S(C)(=O)=O)c3cc(Cl)ccc3O2)c1 (stereo unspecified)
RP-LC retention time: 1020 s

Cc1ccc(-c2noc(Cc3nnc(-c4ccc(F)cc4)o3)n2)cc1C
RP-LC retention time: 1120 s

O=C(NC1CC1)c1ccc(N2CCC(NCc3ccc(Cl)cc3)C2)nc1 (stereo unspecified)
RP-LC retention time: 574 s

O=C(CN1CCN(Cc2cccc(Cl)c2)C1=O)NCc1ccc(N2CCCC2)cc1
RP-LC retention time: 854 s

CC1=NS(=O)(=O)N(Cc2ccccc2)C=C1C(=O)OCc1ccccc1Cl
RP-LC retention time: 1160 s

O=C(C1CCN(S(=O)(=O)c2ccc(-c3noc(C4CCCC4)n3)cc2)CC1)N1CCCC1
RP-LC retention time: 1030 s

CCc1nc(NCc2ccccn2)ncc1C(=O)O
RP-LC retention time: 557 s

CC1CCN(S(=O)(=O)c2ccc3c(c2)-c2oncc2CO3)CC1
RP-LC retention time: 673 s

COC(=O)c1c(NC(C)C)c2cccc(Cl)c2[nH]c1=O
RP-LC retention time: 725 s

Cn1cc(CCN2CCC(C(=O)NCC3CCCO3)CC2)c2cccnc21 (stereo unspecified)
RP-LC retention time: 562 s

CCOc1ccc(NC(=O)Nc2cccc(-c3ccc(N4CCCCC4)nn3)c2)cc1
RP-LC retention time: 740 s

Cc1noc(-c2ccc(OC3CN(S(=O)(=O)c4c(C)noc4C)C3)cc2)n1
RP-LC retention time: 943 s

CC(C)c1ccc(NC(=O)C(=O)c2cn(CC(=O)N3CCCC3)c3ccccc23)cc1
RP-LC retention time: 1140 s

O=C(NCC(F)(F)F)C1CN(C(=O)c2ccc(F)c(F)c2)C1
RP-LC retention time: 667 s

CCOc1cc(=O)n2c(c1C(=O)NCCCN1CCCCC1)CCCCC2
RP-LC retention time: 568 s

CN(C)S(=O)(=O)c1ccc(-c2nnc(C(=O)NCCN3CCCC3)o2)cc1
RP-LC retention time: 574 s

O=C(NCCN1CCOCC1)c1nc(Nc2ccc(F)cc2)c2ccccc2n1
RP-LC retention time: 592 s

O=C(Cc1cn2cc(Br)ccc2n1)N1CCSCC1
RP-LC retention time: 570 s

CCCCn1c(=O)c2c(nc3n2CCN3c2ccc(OC)cc2)n(C)c1=O
RP-LC retention time: 939 s

CCOC(=O)c1cccc(NC(=O)C2CCN(S(=O)(=O)c3ccc4[nH]c(=O)ccc4c3)CC2)c1
RP-LC retention time: 768 s

CCOc1ccc(NC(=O)CN2C(=O)c3ccccc3C2=O)c([N+](=O)[O-])c1
RP-LC retention time: 839 s

Cc1ccc2[nH]c(=O)nc(-c3ccccc3)c2c1
RP-LC retention time: 648 s

Nc1nc(N)c2ncn(-c3ccccc3)c2n1
RP-LC retention time: 584 s
